In general, EC50 refers to the concentration at which the effect is half-maximal. As usually defined, the MBC is the smallest concentration meeting the test's criterion for killing. Read a low MBC as greater bactericidal potency. For orientation: MIC means the smallest concentration in the dilution series that meets the test's criterion for growth inhibition.

The structures appear in SMILES notation. Values after ≈ are worked out from the molar mass of the structure shown. Read-outs that look alike come from different tables or passages of the source. Where only a bound is given, the exact number is not on record here.

This is an account of results in paper PMC9571433, “Design, Synthesis, Anti-Varicella-Zoster and Antimicrobial Activity of (Isoxazolidin-3-yl)Phosphonate Conjugates of N1-Functionalised Quinazoline-2,4-Diones” (Molecules, 2022).

For series [1], the system named is TK+ VZV OKA strain. Nature of the series: microbe, parasite or virus in culture. To be noted: Human alphaherpesvirus 3, HEL, read-out: Antiviral Activity EC50 TK+ VZV Strain (OKA). The format is cell-based, varicella-zoster virus.
For series [2], the system named is TK– VZV 07-1 strain. Description: microbe, parasite or virus in culture. To be noted: Human alphaherpesvirus 3, HEL, read-out: Antiviral Activity EC50 TK– VZV Strain (07-1). It counts as cell-based, varicella-zoster virus.
The test system of series [3] is Salmonella typhimurium TA98, TA100, TA1535 and TA1537 and Escherichia coli WP2 uvrA[pKM101]. Nature of the series: Ames mutagenicity assay (Ames MPF Penta I, bacterial reverse mutation test, with S9). It counts as cell-based. The note with it: up to 0.625 mg/mL; with Aroclor 1254-induced rat liver S9. Here is the method: The study was performed using a standard microplate Ames MPF^TM Penta I kit (Xenometrix, Allschwil, Switzerland), compliant with the OECD guideline […] [29] and the International Organization for Standardization. This test is a widely accepted short-term bacterial assay for the identification of substances that can produce genetic damage that leads to gene mutations. The bacterial strains used in this assay have various mutations that inactivate a gene involved in the synthesis of essential amino acids, either histidine (Salmonella typhimurium, TA98, TA100, TA1535 and TA1537 strains) or tryptophan (Escherichia coli, WP2uvrA[pKM101 strain), so they can only grow in the culture medium that is supplemented with that amino acid. The mutagenic potential of the sample was assessed after metabolic activation in the presence of Aroclor 1254-induced rat liver S9 (S9 Cofactor kit, Xenometrix, Allschwil, Switzerland). […]
Mutagenicity was determined using a standard microplate AMES MPF^TM PENTA I kit according to the manufacturer’s instructions (Xenometrix, Allschwil, Switzerland). […] The number of wells containing revertant colonies was counted for each dose and compared to a solvent (negative) control. […] The mutagenic potential of the sample was assessed after metabolic activation in the presence of Aroclor 1254-induced rat liver S9 (S9 Cofactor kit, Xenometrix, Allschwil, Switzerland). […]
A general note: The Ames test uses bacterial strains that need an amino acid and regain growth without it when mutated back.

Series [4] concerns human embryonic lung (HEL) cells. To be noted: minimum cytotoxic concentration causing microscopically detectable alteration of cell morphology.
Series [5] concerns E. faecalis ATCC 29212. Description: Broth microdilution MIC/MBC. The note with it: Enterococcus faecalis, ATCC29212, 24 h.
Series [6] relates to S. aureus ATCC 2593. Nature of the series: Broth microdilution MIC/MBC. The note with it: Staphylococcus aureus, ATCC2593, 24 h, read-out: MIC = MBC.
Series [7] deals with B. cereus PCM 1948. Description: Broth microdilution MIC/MBC. To be noted: Bacillus cereus. In general terms: Dilution methods test growth across graded concentrations, often in twofold steps.
Series [8] deals with E. coli ATCC 25922. Nature of the series: Broth microdilution MIC/MBC. To be noted: Escherichia coli, ATCC25922, 24 h, read-out: MIC = MBC.
Series [9] concerns P. aeruginosa ATCC 27853. Nature of the series: Broth microdilution MIC/MBC. The note with it: Pseudomonas aeruginosa, ATCC27853, 24 h, read-out: MIC = MBC.
The subject of series [10] is C. albicans ATCC 10241. Description: Broth microdilution MIC/MBC (antifungal). To be noted: Candida albicans, ATCC10241, read-out: MIC = MBC.
Series [11] concerns A. brasiliensis ATCC 16404. Description: Broth microdilution MIC/MBC (antifungal). To be noted: Aspergillus brasiliensis, ATCC16404, 72 h, read-out: MIC = MBC.
The subject of series [12] is varicella-zoster virus (VZV). Details: method as in PMID 24906510, PMID 28763115, PMID 24219992. The note with it: read-out: EC50 inhibition of replication of varicella-zoster virus (VZV); cited from earlier work.
Series [13] deals with adenovirus-2. Details: method as in PMID 28763115. To be noted: read-out: EC50 towards adenovirus-2; cited from earlier work.
The subject of series [14] is feline herpes viruses. Details: method as in PMID 24906510, PMID 28763115, PMID 24219992. To be noted: read-out: EC50 toward feline herpes viruses; cited from earlier work.

`CCOP(=O)(OCC)[C@H]1C[C@H](Cn2c(=O)c3ccccc3n(Cc3cccc(F)c3)c2=O)ON1C` (relative stereo) [Diethyl trans-(5-((1-(3-fluorobenzyl)-2,4-dioxo-1,4-dihydroquinazolin-3(2H)-yl)methyl)-2-methylisoxazolidin-3-yl)phosphonate]: the values for the EC50 in series [1] and in [2] were 100 µM and 58.5 µM, respectively. Moreover, the “Mutagenicity (Ames test)” value in series [3] is recorded as “not being mutagenic”. In series [4], the “Cytotoxicity Cell Morphology MCC” value is recorded as greater than 100 μM. The molecule further gave an MBC in [5] greater than 5000 µg/mL. For the same molecule, the MIC in series [5] was greater than 5000 µg/mL; in [6], 5000 µg/mL (≈ 9.89 mM); in series [7] (PCM1948), 625 µg/mL (≈ 1.24 mM); in [7] (PCM1948, 24 h, read-out: MIC = MBC), 625 µg/mL (≈ 1.24 mM); in [8], 2500 µg/mL (≈ 4.95 mM); in [9] it was 2500 µg/mL (≈ 4.95 mM). In addition, the MIC was 2500 µg/mL (≈ 4.95 mM) in series [10] and 5000 µg/mL (≈ 9.89 mM) in [11].

For `O=C(c1ccc(F)cc1)n1c(=O)c2ccccc2n(Cc2cn(CCCOCc3ccccc3)nn2)c1=O` [6a], in series [12], the EC50 was 6.8 to 8.2 µM.

As to `C#CCn1c(=O)n(C(=O)c2ccc(F)cc2)c(=O)c2ccccc21` [compound 5], the EC50 in series [13] is 8.3 µM.

For the molecule `O=C(c1ccccc1)n1c(=O)c2ccccc2n(Cc2cn(C[C@H](OCc3ccccc3)[C@H](O)P(=O)(OCc3ccccc3)OCc3ccccc3)nn2)c1=O` [compound 8], the EC50 in series [14] is 24 µM.
